From patent US4740233A, “Substituted 1,2,4-triazolo[1,5-a]-pyrimidine-2-sulfonamides and compositions and methods of controlling undesired vegetation and suppressing the nitrification of ammonium nitrogen in soil” (The Dow Chemical Company, priority 1986, dated 1988)

Tests used:
rape [1] = test: Postemergent control of plant species; type: in vivo, Brassica napus; conditions: Brassica napus, post-emergence, 336 h, read-out: percent postemergent control
Summary of the method: (§1)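 Foliar spray, 2-4 leaf stage, greenhouse. Formulation: acetone solution (2x final conc.) mixed 1:1 with water + 0.1% surface active agent. ~2 wk hold, watered as needed. Readout = % growth reduction vs untreated same-species controls.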

soybean [2] = test: Postemergent control of plant species; type: in vivo, Glycine max.; conditions: Glycine max, post-emergence, 336 h, read-out: percent postemergent control
Summary of the method: as §1

cocklebur = test: Postemergent control of plant species; type: in vivo, Xanthium spp.; conditions: Xanthium strumarium, post-emergence, 336 h, read-out: percent postemergent control
Summary of the method: as §1

pigweed [3] = test: Postemergent control of plant species; type: in vivo, Amaranthus spp.; conditions: Amaranthus retroflexus, post-emergence, 336 h, read-out: percent postemergent control
Summary of the method: as §1

velvetleaf [4] = test: Postemergent control of plant species; type: in vivo, Abutilon theophrasti; conditions: Abutilon theophrasti, post-emergence, 336 h, read-out: percent postemergent control
Summary of the method: as §1

corn [5] = test: Postemergent control of plant species; type: in vivo, Zea mays; conditions: Zea mays, post-emergence, 336 h, read-out: percent postemergent control
Summary of the method: as §1

rice [6] = test: Postemergent control of plant species; type: in vivo, Oryza sativa; conditions: Oryza sativa, post-emergence, 336 h, read-out: percent postemergent control
Summary of the method: as §1

sorghum = test: Postemergent control of plant species; type: in vivo, Sorghum vulgare; conditions: Sorghum, post-emergence, 336 h, read-out: percent postemergent control
Summary of the method: as §1

barnyardgrass [7] = test: Postemergent control of plant species; type: in vivo, Echinochloa crusgalli; conditions: Echinochloa crus-galli, post-emergence, 336 h, read-out: percent postemergent control
Summary of the method: as §1

yellow foxtail = test: Postemergent control of plant species; type: in vivo, Setaria lutescens; conditions: Setaria, post-emergence, 336 h, read-out: percent postemergent control
Summary of the method: as §1

johnson grass [8] = test: Postemergent control of plant species; type: in vivo, Sorghum halepense; conditions: Sorghum halepense, post-emergence, 336 h, read-out: percent postemergent control
Summary of the method: as §1

wild oats [9] = test: Postemergent control of plant species; type: in vivo, Avena fatua; conditions: Avena fatua, post-emergence, 336 h, read-out: percent postemergent control
Summary of the method: as §1

yellow nutsedge = test: Postemergent control of plant species; type: in vivo, Cyperus esculentus; conditions: Cyperus, post-emergence, 336 h, read-out: percent postemergent control
Summary of the method: as §1

cotton = test: Preemergent control of plant species; type: in vivo, Gossypium spp.; conditions: Gossypium hirsutum, pre-emergence, 336 h; 0.25 lb/acre; read-out: percent preemergent control
Summary of the method: (§2)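 Growth reduction relative to untreated plants of the same species, assessed two weeks after treatment, defines the control value. Compositions, mostly aqueous emulsions, were deposited uniformly on seeded greenhouse soil beds at the tabulated rates, with a water-treated bed as reference.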

rape [10] = test: Preemergent control of plant species; type: in vivo, Brassica napus; conditions: Brassica napus, pre-emergence, 336 h; 0.25 lb/acre; read-out: percent preemergent control
Summary of the method: as §2

soybean [11] = test: Preemergent control of plant species; type: in vivo, Glycine max.; conditions: Glycine max, pre-emergence, 336 h; 0.25 lb/acre; read-out: percent preemergent control
Summary of the method: as §2

sugar beet = test: Preemergent control of plant species; type: in vivo, Beta saccharifera; conditions: Beta vulgaris, pre-emergence, 336 h; 0.25 lb/acre; read-out: percent preemergent control
Summary of the method: as §2

jimsonweed = test: Preemergent control of plant species; type: in vivo, Datura stramonium; conditions: Datura stramonium, pre-emergence, 336 h; 0.25 lb/acre; read-out: percent preemergent control
Summary of the method: as §2

annual morning glory = test: Preemergent control of plant species; type: in vivo, Ipomoea spp.; conditions: Ipomoea, pre-emergence, 336 h; 0.25 lb/acre; read-out: percent preemergent control
Summary of the method: as §2

pigweed [12] = test: Preemergent control of plant species; type: in vivo, Amaranthus spp.; conditions: Amaranthus retroflexus, pre-emergence, 336 h; 0.25 lb/acre; read-out: percent preemergent control
Summary of the method: as §2

velvetleaf [13] = test: Preemergent control of plant species; type: in vivo, Abutilon theophrasti; conditions: Abutilon theophrasti, pre-emergence, 336 h; 0.25 lb/acre; read-out: percent preemergent control
Summary of the method: as §2

corn [14] = test: Preemergent control of plant species; type: in vivo, Zea mays; conditions: Zea mays, pre-emergence, 336 h; 0.25 lb/acre; read-out: percent preemergent control
Summary of the method: as §2

rice [15] = test: Preemergent control of plant species; type: in vivo, Oryza sativa; conditions: Oryza sativa, pre-emergence, 336 h; 0.25 lb/acre; read-out: percent preemergent control
Summary of the method: as §2

wheat = test: Preemergent control of plant species; type: in vivo, Triticum aestivum; conditions: Triticum aestivum, pre-emergence, 336 h; 0.25 lb/acre; read-out: percent preemergent control
Summary of the method: as §2

barnyardgrass [16] = test: Preemergent control of plant species; type: in vivo, Echinochloa crusgalli; conditions: Echinochloa crus-galli, pre-emergence, 336 h; 0.25 lb/acre; read-out: percent preemergent control
Summary of the method: as §2

crabgrass = test: Preemergent control of plant species; type: in vivo, Digitaria spp.; conditions: Digitaria sanguinalis, pre-emergence, 336 h; 0.25 lb/acre; read-out: percent preemergent control
Summary of the method: as §2

johnson grass [17] = test: Preemergent control of plant species; type: in vivo, Sorghum halepense; conditions: Sorghum halepense, pre-emergence, 336 h; 0.25 lb/acre; read-out: percent preemergent control
Summary of the method: as §2

wild oats [18] = test: Preemergent control of plant species; type: in vivo; conditions: Avena fatua, pre-emergence, 336 h; 0.25 lb/acre; read-out: percent preemergent control
Summary of the method: as §2

Compound	plant injury at 500 ppm (rape [1])	plant injury at 500 ppm (soybean [2])	pest or weed control at 500 ppm (pigweed [3])	pest or weed control at 500 ppm (velvetleaf [4])	plant injury at 500 ppm (corn [5])	plant injury at 500 ppm (rice [6])	plant injury at 500 ppm (sorghum)	pest or weed control at 500 ppm (barnyardgrass [7])	pest or weed control at 500 ppm (yellow foxtail)	pest or weed control at 500 ppm (johnson grass [8])	pest or weed control at 500 ppm (wild oats [9])	pest or weed control at 500 ppm (yellow nutsedge)	plant injury at 280.212 g/ha (cotton)	plant injury at 280.212 g/ha (rape [10])	plant injury at 280.212 g/ha (soybean [11])	plant injury at 280.212 g/ha (sugar beet)	pest or weed control at 280.212 g/ha (jimsonweed)	pest or weed control at 280.212 g/ha (annual morning glory)	pest or weed control at 280.212 g/ha (velvetleaf [13])	plant injury at 280.212 g/ha (corn [14])	also measured
Cc1cc(C)n2nc(S(=O)(=O)Nc3ccccc3I)nc2n1 [Compound 6]	80%	70%	30%	90%	0%	20%	80%	35%	0%	80%	0%	90%	70%	100%	10%	95%	0%	0%	60%	0%	pest or weed control at 500 ppm (cocklebur): 90%; pest or weed control at 280.212 g/ha (pigweed [12]): 100%; plant injury at 280.212 g/ha (rice [15]): 80%; plant injury at 280.212 g/ha (wheat): 0%; pest or weed control at 280.212 g/ha (barnyardgrass [16]): 80%; pest or weed control at 280.212 g/ha (crabgrass): 0%; pest or weed control at 280.212 g/ha (johnson grass [17]): 0%
Cc1cc(C)n2nc(S(=O)(=O)Nc3ccccc3F)nc2n1 [Compound 8]	90%	75%	50%	75%	20%	40%	70%	70%	25%	90%	0%	60%	90%	100%	95%	90%	100%	25%	60%	80%	pest or weed control at 500 ppm (cocklebur): 90%; pest or weed control at 280.212 g/ha (pigweed [12]): 95%; plant injury at 280.212 g/ha (rice [15]): 90%; plant injury at 280.212 g/ha (wheat): 0%; pest or weed control at 280.212 g/ha (barnyardgrass [16]): 75%; pest or weed control at 280.212 g/ha (crabgrass): 70%; pest or weed control at 280.212 g/ha (johnson grass [17]): 80%; pest or weed control at 280.212 g/ha (wild oats [18]): 15%
Cc1cc(C)n2nc(S(=O)(=O)Nc3ccccc3[N+](=O)[O-])nc2n1 [Compound 12]	100%	80%	100%	95%	10%	25%	75%	80%	20%	55%	0%	90%	95%	95%	95%	98%	0%	50%	30%	50%	pest or weed control at 500 ppm (cocklebur): 100%; pest or weed control at 280.212 g/ha (pigweed [12]): 60%; plant injury at 280.212 g/ha (rice [15]): 10%; plant injury at 280.212 g/ha (wheat): 0%; pest or weed control at 280.212 g/ha (barnyardgrass [16]): 40%; pest or weed control at 280.212 g/ha (crabgrass): 10%; pest or weed control at 280.212 g/ha (johnson grass [17]): 80%; pest or weed control at 280.212 g/ha (wild oats [18]): 0%
COC(=O)c1cccc(F)c1NS(=O)(=O)c1nc2nc(C)cc(C)n2n1 [Compound 26]	100%	95%	100%	100%	80%	80%	90%	100%	90%	100%	0%	90%	95%	98%	98%	100%	100%	95%	95%	100%	pest or weed control at 500 ppm (cocklebur): 100%; pest or weed control at 280.212 g/ha (pigweed [12]): 100%; plant injury at 280.212 g/ha (rice [15]): 100%; plant injury at 280.212 g/ha (wheat): 0%; pest or weed control at 280.212 g/ha (barnyardgrass [16]): 98%; pest or weed control at 280.212 g/ha (crabgrass): 100%; pest or weed control at 280.212 g/ha (johnson grass [17]): 98%; pest or weed control at 280.212 g/ha (wild oats [18]): 40%
CCc1cccc(CC)c1NS(=O)(=O)c1nc2nc(C)cc(C)n2n1 [Compound 33]	60%	40%	10%	80%	25%	0%	80%	0%	0%	60%	0%	10%	20%	80%	10%	50%	40%	0%	0%	0%	pest or weed control at 500 ppm (cocklebur): 60%; pest or weed control at 280.212 g/ha (pigweed [12]): 10%; plant injury at 280.212 g/ha (rice [15]): 0%; plant injury at 280.212 g/ha (wheat): 40%; pest or weed control at 280.212 g/ha (barnyardgrass [16]): 50%; pest or weed control at 280.212 g/ha (crabgrass): 10%; pest or weed control at 280.212 g/ha (johnson grass [17]): 0%; pest or weed control at 280.212 g/ha (wild oats [18]): 40%
CC(=O)N(c1c(Cl)cccc1Cl)S(=O)(=O)c1nc2nc(C)cc(C)n2n1 [Compound 262]	100%	95%	100%	100%	50%	40%	90%	100%	100%	100%	0%	80%	90%	100%	100%	100%	100%	90%	100%	80%	plant injury at 280.212 g/ha (rice [15]): 95%; plant injury at 280.212 g/ha (wheat): 0%; pest or weed control at 280.212 g/ha (barnyardgrass [16]): 90%; pest or weed control at 280.212 g/ha (johnson grass [17]): 60%; pest or weed control at 280.212 g/ha (wild oats [18]): 50%
